Measurements published in US11655217B2, “Pyrazole MAGL inhibitors” (H. Lundbeck A/S, priority 2017, dated 2023).

Experiments:
FAAH = FAAH (Mus musculus (Mouse), UniProt O08914); assay: Mouse brain proteomes from inhibitor treated mice (oral gavage, sacrificed 4 h after administration, ABPP analysis), FAAH; details: 5 mg/kg oral gavage
Experimental: (§1) Preparation of Mouse Brain Proteomes from Inhibitor Treated Mice.
(§2) Inhibitors were administered to wild-type C57Bl/6J by oral gavage in a vehicle of polyethylene glycol.

MAGL = MAGL (Mus musculus (Mouse), UniProt O35678); assay: Mouse brain proteomes from inhibitor treated mice (oral gavage, sacrificed 4 h after administration, ABPP analysis); details: 5 mg/kg oral gavage
Chain of MAGL (O35678 whole entry): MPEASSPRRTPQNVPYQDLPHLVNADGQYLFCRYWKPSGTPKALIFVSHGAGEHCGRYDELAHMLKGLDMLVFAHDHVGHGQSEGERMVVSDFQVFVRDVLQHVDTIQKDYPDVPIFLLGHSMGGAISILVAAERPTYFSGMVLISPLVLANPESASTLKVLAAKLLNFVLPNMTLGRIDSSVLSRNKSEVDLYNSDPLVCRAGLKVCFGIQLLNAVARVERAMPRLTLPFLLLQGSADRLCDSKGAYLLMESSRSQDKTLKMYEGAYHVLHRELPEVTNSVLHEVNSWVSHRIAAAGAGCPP
Experimental: as §1, §2

Chain of FAAH (O08914 whole entry): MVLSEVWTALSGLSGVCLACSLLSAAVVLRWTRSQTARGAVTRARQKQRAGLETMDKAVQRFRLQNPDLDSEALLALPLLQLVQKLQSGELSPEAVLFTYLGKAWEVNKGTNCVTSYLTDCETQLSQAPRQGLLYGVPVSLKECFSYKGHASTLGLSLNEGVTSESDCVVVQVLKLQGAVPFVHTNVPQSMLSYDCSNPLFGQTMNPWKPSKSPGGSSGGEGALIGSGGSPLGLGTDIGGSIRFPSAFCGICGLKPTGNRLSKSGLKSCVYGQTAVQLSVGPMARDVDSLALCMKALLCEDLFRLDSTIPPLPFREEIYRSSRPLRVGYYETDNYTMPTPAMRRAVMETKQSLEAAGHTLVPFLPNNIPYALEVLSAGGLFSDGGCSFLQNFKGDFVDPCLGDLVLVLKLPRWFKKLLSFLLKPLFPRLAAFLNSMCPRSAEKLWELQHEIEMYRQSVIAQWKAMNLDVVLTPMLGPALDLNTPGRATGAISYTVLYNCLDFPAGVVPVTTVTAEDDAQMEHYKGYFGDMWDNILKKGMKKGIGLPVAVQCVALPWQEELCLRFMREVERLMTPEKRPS

Compound	FAAH % inh. 5 mg/kg (mouse) (FAAH)	MAGL % inh. 5 mg/kg (mouse) (MAGL)
O=C(O)c1nn(C(=O)N2CC3CN(Cc4ccc(N5CCCC5)cc4C(F)(F)F)CC3C2)cc1Cl (centres unmarked) [Example 140, 4-chloro-1-(5-(4-(pyrrolidin-1-yl)-2-(trifluoromethyl)benzyl)octahydro-pyrrolo[3,4-c]pyrrole-2-carbonyl)-1H-pyrazole-3-carboxylic acid]	D (% inhibition is greater than or equal to 0% and less than 25%)	D (% inhibition is greater than or equal to 0% and less than 25%)
O=C(O)c1nn(C(=O)N2CCC3(CCN(Cc4cc(Cl)ccc4C(F)(F)F)C3)CC2)cc1C(F)(F)F [Example 148, 1-(2-(5-chloro-2-(trifluoromethyl)benzyl)-2,8-diazaspiro[4.5]decane-8-carbonyl)-4-(trifluoromethyl)-1H-pyrazole-3-carboxylic acid]	C (% inhibition is greater than or equal to 25% and less than 50%)	D (% inhibition is greater than or equal to 0% and less than 25%)
O=C(O)c1ccn(C(=O)N2C[C@H]3C[C@H](OCc4cccc(C(F)(F)F)c4)C[C@H]3C2)n1 [Example 157, 1-(trans-5-((3-(trifluoromethyl)benzyl)oxy)octa-hydrocyclopenta[c]pyrrole-2-carbonyl)-1H-pyrazole-3-carboxylic acid]	D (% inhibition is greater than or equal to 0% and less than 25%)	D (% inhibition is greater than or equal to 0% and less than 25%)
O=C(O)c1ccn(C(=O)N2C[C@H]3C[C@H](OCc4cccc(Oc5ccc(Cl)cc5)c4)C[C@H]3C2)n1 [Example 158, 1-(trans-5-((3-(4-chlorophenoxy)benzyl)oxy)octa-hydrocyclopenta[c]pyrrole-2-carbonyl)-1H-pyrazole-3-carboxylic acid]	D (% inhibition is greater than or equal to 0% and less than 25%)	D (% inhibition is greater than or equal to 0% and less than 25%)
Cc1c(CO[C@H]2C[C@@H]3CN(C(=O)n4ccc(C(=O)O)n4)C[C@@H]3C2)cccc1C(F)(F)F [Example 159, 1-(trans-5-((2-methyl-3-(trifluoromethyl)benzyl)oxy)octa-hydrocyclopenta[c]pyrrole-2-carbonyl)-1H-pyrazole-3-carboxylic acid]	D (% inhibition is greater than or equal to 0% and less than 25%)	D (% inhibition is greater than or equal to 0% and less than 25%)
O=C(O)c1ccn(C(=O)N2CCC3(CCCN3Cc3cc4ccc(C(F)(F)F)cc4s3)CC2)n1 [Example 185, 1-(1-((6-(trifluoromethyl)-benzo[b]thiophen-2-yl)methyl)-1,8-diazaspiro[4.5]-decane-8-carbonyl)-1H-pyrazole-3-carboxylic acid]	D (% inhibition is greater than or equal to 0% and less than 25%)	D (% inhibition is greater than or equal to 0% and less than 25%)
O=C(O)c1ccn(C(=O)N2CCN(Cc3cc4cc(Cl)ccc4s3)CC2)n1 [Example 187, 1-(4-((5-chlorobenzo[b]thio-phen-2-yl)methyl)piperazine-1-carbonyl)-1H-pyrazole-3-carboxylic acid]	D (% inhibition is greater than or equal to 0% and less than 25%)	D (% inhibition is greater than or equal to 0% and less than 25%)
Cc1c(CN2CCN(C(=O)n3ccc(C(=O)O)n3)CC2)[nH]c2ccc(Cl)cc12 [Example 188, 1-(4-((5-chloro-3-methyl-1H-indol-2-yl)methyl)piperazine-1-carbonyl)-1H-pyrazole-3-carboxylic acid]	D (% inhibition is greater than or equal to 0% and less than 25%)	D (% inhibition is greater than or equal to 0% and less than 25%)
NC(=O)c1ccn(C(=O)N2CCN(Cc3cccc(C(F)(F)F)c3N3CCOCC3)CC2)n1 [Example 199, 1-(4-(2-morpholino-3-(trifluoromethyl)benzyl)piperazine-1-carbonyl)-1H-pyrazole-3-carboxamide]	D (% inhibition is greater than or equal to 0% and less than 25%)	A (% inhibition is greater than or equal to 75%)
CN(Cc1ccc(C(F)(F)F)cc1N1C2CCC1COC2)C1(C)CCN(C(=O)n2ccc(C(=O)O)n2)CC1 [Example 207, 1-(4-((2-(3-oxa-8-azabicyclo[3.2.1]octan-8-yl)-4-(trifluoromethyl)benzyl)(methyl)-amino)-4-methyl-piperidine-1-carbonyl)-1H-pyrazole-3-carboxylic acid]	D (% inhibition is greater than or equal to 0% and less than 25%)	D (% inhibition is greater than or equal to 0% and less than 25%)
O=C(O)c1ccn(C(=O)N2CCC3(CCN(Cc4cccc(Oc5ccc(Cl)cc5)c4)C3)CC2)n1 [Example 210, 1-(2-(3-(4-chlorophenoxy)benzyl)-2,8-diazaspiro[4.5]decane-8-carbonyl)-1H-pyrazole-3-carboxylic acid]	D (% inhibition is greater than or equal to 0% and less than 25%)	D (% inhibition is greater than or equal to 0% and less than 25%)
O=C(O)c1ccn(C(=O)N2CCN(Cc3cccc(Cl)c3N3CC4COCC4C3)CC2)n1 (centres unmarked) [Example 211, 1-(4-(3-chloro-2-(tetrahydro-1H-furo[3,4-c]pyrrol-5(3H)-yl)benzyl)piperazine-1-carbonyl)-1H-pyrazole-3-carboxylic acid]	D (% inhibition is greater than or equal to 0% and less than 25%)	D (% inhibition is greater than or equal to 0% and less than 25%)
O=C(O)c1ccn(C(=O)N2CCN(Cc3cccc(Cl)c3N3C4CCC3COC4)CC2)n1 [Example 212, 1-(4-(2-(3-oxa-8-azabicyclo[3.2.1]octan-8-yl)-3-chlorobenzyl)piper-azine-1-carbonyl)-1H-pyrazole-3-carboxylic acid]	D (% inhibition is greater than or equal to 0% and less than 25%)	D (% inhibition is greater than or equal to 0% and less than 25%)
